According to patent US9650388B2, “Form 2 crystalline polymorph of a salt of N-[1-6-(ethynyl-3-oxo-hexahydro-furo[3,2-B]pyrrole-4-carbonyl)-3-methyl-butyl]-4-[5-fluoro-2-(4-methyl-piperazinyl) thiazol-4-yl]-benzamide useful as cysteine protease inhibitor” (MEDIVIR AB, priority 2013, dated 2017):
Values after ≈ are worked out from the molar mass of the structure shown.

Assays:
Type in all cases: physicochemical
[1] = Thermodynamic aqueous solubility
Description: Thermodynamic Aqueous Solubility
The suspension was equilibrated at 25° C. for 24 hours then the pH was measured. The suspension was then filtered through a glass fibre C filter into a 96 well plate. […] Quantitation was by HPLC with reference to a standard solution of approximately 0.25 mg·ml^−1 in DMSO. Different volumes of the standard, diluted and undiluted sample solutions were injected.
Analysis was performed on an Agilent HP1100 series system equipped with a diode array detector and using ChemStation software vB.02.01-SR1.

[2] = Thermal analysis by DSC and TGA; settings: 10° C./min; for temperature of mass loss(es) on heating: TGA, Form 1: two distinct mass losses (FIG. 13), free base: a mass loss, probably water (FIG. 14)
Description: Differential Scanning Calorimetry (DSC)
DSC data were collected on a Mettler DSC 823e equipped with a 34 position auto-sampler. The instrument was calibrated for energy and temperature using certified indium. Typically 0.5-3 mg of each sample, in a pin-holed aluminium pan, was heated at 10° C./min from 25° C. to 300° C. A nitrogen purge at 50 ml/min was maintained over the sample.
Thermogravimetric Analysis (TGA)
TGA data were collected on a Mettler TGA/SDTA 851e equipped with a 34 position auto-sampler. The instrument was temperature calibrated using certified indium. Typically 5-30 mg of each sample was loaded onto a pre-weighed aluminium crucible and was heated at 10° C./min from ambient temperature to 400° C. A nitrogen purge at 50 ml/min was maintained over the sample.
Thermal analysis of Form 2 crystalline polymorph (a sample obtained using the method in Example 6) by DSC and TGA was undertaken using the method describe in General Methods. […]

[3] = Gravimetric vapour sorption (GVS); settings: 25° C.
Description: Gravimetric Vapour Sorption (GVS)
Sorption isotherms were obtained using a SMS DVS Intrinsic moisture sorption analyser, controlled by DVS Intrinsic Control software v1.0.0.30. The sample temperature was maintained at 25° C. by the instrument controls. The humidity was controlled by mixing streams of dry and wet nitrogen, with a total flow rate of 200 ml/min The relative humidity was measured by a calibrated Rotronic probe (dynamic range of 1.0-100% RH), located near the sample. The weight change, (mass relaxation) of the sample as a function of % RH was constantly monitored by the microbalance (accuracy ±0.005 mg).
Typically 5-20 mg of sample was placed in a tared mesh stainless steel basket under ambient conditions. The sample was loaded and unloaded at 40% RH and 25° C. (typical room conditions). A moisture sorption isotherm was performed as outlined below (2 scans giving 1 complete cycle). The standard isotherm was performed at 25° C. at 10% RH intervals over a 0-90% RH range. Data analysis was undertaken in Microsoft Excel using DVS Analysis Suite v6.0.0.7.
The sample was recovered after completion of the isotherm and re-analysed by XRPD.
Gravimetric vapour sorption analysis of Form 2 crystalline polymorph (a sample obtained using the method in Example 6) was undertaken using the method described in General Methods.

[4] = Solid state 13C NMR, environmental dependence of ketone:hydrate ratio; settings: as prepared 67:33
Description: The analysis was carried out using a Varian VNMRS instrument operating at 100.56 MHz for ^13C (399.88 MHz for 1H) and 376.24 MHz for ^19F with a 4 mm (rotor o.d.) magic-angle spinning probe. Carbon-13 spectra were recorded from the sample using a crosspolarization magic-angle spinning (CPMAS) technique without and with dipolar dephasing (interrupted decoupling). Appropriate acquisition conditions were established using a set of short trial measurements: recycle 5 s, contact time 5 ms. A sample spin-rate of 10.0 kHz was used along with two-pulse phase-modulated (TPPM) 1H decoupling (at a radiofrequency field approximately equivalent to 75 kHz). The sample was run as-received and at ambient probe temperature (˜30° C. at this spin rate). Spectra are referenced with respect to neat tetramethylsilane (by setting the high-frequency line from adamantane to 38.5 ppm). The ^19F spectrum was obtained by direct excitation following a 3.6 μs 90° pulse, with a 60 s relaxation delay, at spin rate of 14 kHz and with no 1H decoupling. The spectrum is referenced relative to CFCI3.
The analysis was carried out using a Varian VNMRS instrument operating at 100.56 MHz for ^13C (399.88 MHz for 1H) and a 6 mm (rotor o.d.) magic-angle spinning probe. Carbon-13 spectra were recorded from the sample using a cross-polarization magic-angle spinning (CPMAS) technique. […]
The ^13C solid state NMR spectrum of a sample of Form 2 crystalline polymorph produced using the method of Example 5 is illustrated in FIG. 5. Based on the integration of the 208 ppm (ketone) and 102 ppm (hydrate) signals, the ketone:hydrate ratio was determined to be 67:33.
The ^13C solid state NMR spectrum illustrated in FIG. 6 was recorded after the sample had been stored at a relative humidity of <2% for one week. […] The ^13C solid state NMR spectrum shown in FIG. 7 was recorded after the sample had been stored at 75% RH for one week. […] The ^13C solid state NMR spectrum shown in FIG. 8 was recorded at 80° C. and gives a ketone content of 68%.

**Q.** For `C#C[C@@H]1CN(C(=O)[C@H](CC(C)C)NC(=O)c2ccc(-c3nc(N4CCN(C)CC4)sc3F)cc2)[C@@H]2C(=O)CO[C@H]12` [Compound I free base, N-[1-6-(ethynyl-3-oxo-hexahydro-furo[3,2-b]pyrrole-4-carbonyl)-3-methyl-butyl]-4-[5-fluoro-2-(4-methyl-piperazin-1-yl)thiazol-4-yl]-benzamide], which solubility at 24 h ([1]; pH 5.8, thermodynamic from solid, suspension in water equilibrated at 25° C. for 24 hours, filtered, HPLC, pH of each suspension printed in same cell) is on record?
**A.** 300 µg/mL (≈ 528 µM)

**Q.** What about the “pH measured after equilibration of the solubility suspension” value ([1]; water, 25° C., 24 hours) of the same molecule?
**A.** 5.8

**Q.** And the “temperature of mass loss(es) on heating” value [2]?
**A.** below 110 °C

**Q.** With `C#CC1CN(C(=O)C(CC(C)C)NC(=O)c2ccc(-c3nc(N4CCN(C)CC4)sc3F)cc2)C2C(=O)COC12.Cl` (stereo not shown) [Form 1 crystalline polymorph, N-[1-6-(ethynyl-3-oxo-hexahydro-furo[3,2-b]pyrrole-4-carbonyl)-3-methyl-butyl]-4-[5-fluoro-2-(4-methyl-piperazin-1-yl)thiazol-4-yl]-benzamide monohydrochloride] as the molecule, how does the “temperature of mass loss(es) on heating” value [2] read?
**A.** below 160 °C

**Q.** With “N-[1-6-(ethynyl-3-oxo-hexahydro-furo[3,2-b]pyrrole-4-carbonyl)-3-methyl-butyl]-4-[5-fluoro-2-(4-methyl-piperazin-1-yl)thiazol-4-yl]-benzamide monohydrochloride and N-[1-6-(ethynyl-3-oxo-hexahydro-furo[3,2-b]pyrrole-4-carbonyl)-3-methyl-butyl]-4-[5-fluoro-2-(4-methyl-piperazin-1-yl)thiazol-4-yl]-benzamide hydrate monohydrochloride [Form 2 crystalline polymorph]” as the molecule, how does the “reversibility of water uptake” value ([3]; 0-90% RH range) read?
**A.** reversible

**Q.** What about the water uptake ([3]; over the 0-90% RH range) of the same molecule?
**A.** ~2.2%

**Q.** What about the “ketone share of ketone/hydrate signal intensity” value ([4]; after storage at 75% RH for one week (FIG. 7)) of the same molecule?
**A.** 67%

**Q.** And the “ketone share of ketone/hydrate signal intensity” value ([4]; after storage at relative humidity <2% for one week (FIG. 6))?
**A.** 67%

**Q.** What about the ketone content ([4]; spectrum recorded at 80° C. (FIG. 8)) of the same molecule?
**A.** 68%

**Q.** And the “temperature at which degradation begins” value ([2]; DSC/TGA, nitrogen, small mass loss until this temperature (FIG. 12))?
**A.** 160 °C
